Experimental findings from US8545876B1, “Modified drugs for use in liposomal nanoparticles” (The University of British Columbia, priority 2008, dated 2013) are described below.

Where two headings read alike, the source gives them in different places.

In one data set the test system is A431 tumors. As to the kind of experiment: In vivo kinetics and anticancer activity of vincristine formulations. Also noted: species or system SCID mice. The settings on record: 2 mg/kg i.v. The protocol: FIG. 9. In vivo kinetics and anticancer activity of free vincristine (VCR) (2 mg/kg) and vincristine (2 mg/kg) encapsulated in 100 nm egg sphingomyelin/cholesterol LN injected i.v. in SCID mice bearing A431 tumors. (8A) Concentration profile of free VCR (□) and LN formulated VCR (●) in blood plasma over time. […] (8B) Release of free VCR (●) from LN formulations (% retention) over time. […] (8C) Tumor concentration ([…]) of VCR over time after administration of free VCR (□) and LN formulated VCR (●). […] (8D) Anticancer activity of free VCR (1) and LN formulated VCR (●) relative to saline control (▪). […] Nano-liposomal formulations increase the amount of drug reaching sites of tumor growth and prolongs the duration of exposure to therapeutically active levels of drug, resulting in increased antitumor activity.

Data set [1] is described as follows: Chemical (hydrolytic) stability in buffered aqueous solutions. The data set is classed as physicochemical. The protocol: (§1) The chemical stability of the docetaxel derivatives was determined in aqueous solutions at different pH values and temperatures, and in biological media (mouse plasma). Aliquots of the docetaxel derivatives in acetonitrile were mixed with buffered citrate/HEPES (10 mM/10 mM) solutions at pH 4.0 and 7.5, or in mouse plasma in 1 mL glass HPLC sample vials sealed with Teflon-lined caps (final volume 0.25 ml, final docetaxel derivative concentration 50 µg/ml). Drug stability was determined 1, 4 and 24 hrs after incubation at 37° C. by UPLC-UV. At the indicated time points, a 3-fold excess of methanol/0.1% TFA was added to the sample. Citrate/HEPES buffered samples were analyzed by UHPLC as described above. For plasma samples, proteins precipitated by the addition of methanol/0.1% TFA pelleted by centrifugation at 14,000×g and supernatants were analyzed for the drug derivatives. Heparanized mouse plasma was diluted to 50% with 100 mM sodium-phosphate buffer to keep the pH constant throughout the experiment.
(§2) To be suitable for formulation in LN, derivatives must be stable at pH 4 (the pH present inside the LN carrier). In addition, prodrug derivatives should readily form the active drug under physiological conditions (e.g., at pH 7.4 and/or in the presence of endogenous enzymes) once released from the LN. […] TD1-3 and TD7 were selected for loading into LN and testing of such LN for drug release in vitro.

Data set [2] in a line: Stability in mouse plasma. The data set is classed as in vitro ADME. The settings on record: 24 hour incubation in mouse plasma, 37° C. The protocol:
as §1, §2

In data set [3] the test system is breast cancer cell line MDA435/LCC6. As to the kind of experiment: In vitro cytotoxicity, Alamar Blue assay. The data set is classed as cell-based. The settings on record: Homo sapiens; MDA-MB-435/LCC6, 72-h drug exposure. The protocol:
(§3) Anticancer activity was evaluated against a panel of 3 human cancer cell lines, including the ovarian cancer cell line ES-2, the prostate cancer cell line PC3 and the breast cancer cell line MDA435/LCC6 (BC Cancer Research Centre, Vancouver, BC) (Fields and Lancaster, Am. Biotechnol. Lab., 11:48-50 (1993); Nakayama et al., J. Immunol. Methods, 204:205-208 (1997)). Cytotoxicity was determined using the Alamar Blue assay after a 72-h drug exposure period. […] The plates were returned to the incubator for 4 h; sample fluorescence was determined at λex=530 nm and λem=590 nm. Viability was calculated according to: Cell viability (%)=(Fplus drug−Fbackground)/(Fminus drug−Fbackground)*100, where Fplus drug is the fluorescence reading in the presence of drug, Fminus drug the cell control in the absence of drug and Fbackground the background fluorescence (media alone).
In general terms: Alamar Blue is a resazurin reagent that responds to reducing activity.

The subject of data set [4] is ovarian cancer cell line ES-2. As to the kind of experiment: In vitro cytotoxicity, Alamar Blue assay. The data set is classed as cell-based. The settings on record: Homo sapiens; ES-2, 72-h drug exposure. The protocol:
as §3

The test system of data set [5] is prostate cancer cell line PC3. As to the kind of experiment: In vitro cytotoxicity, Alamar Blue assay. The data set is classed as cell-based. The settings on record: Homo sapiens; PC-3, 72-h drug exposure. The protocol:
as §3

A short description of data set [6]: Single dose tolerability (MTD) study. The data set is classed as in vivo, SCID/Rag2-M mice. The settings on record: for MTD at 14 days: SCID/Rag2-M, mouse, in vivo, iv, single dose i.v. The protocol:
Tolerability studies were aimed at establishing the maximum tolerated dose (MTD) and the dose range for use in efficacy studies (efficacy studies were based on a single i.v. injection). […] The studies were based on administration of a single dose and relied on 3 mice/group and a dose escalation strategy based on three dose levels for the derivative and Taxotere and five dose levels for the LN formulations (DSPC/Chol 55:45 mol % at a prodrug/lipid weight ratio of 0.2 mg/mg). All formulations were injected i.v. via the lateral tail vein in a volume of 200 μl/20 g mouse.
Mice were monitored daily for signs of toxicity over a period of 14 days following drug administration. Tolerability was assessed by changes in body weight as well as behavioral parameters. […] Body weights of individual mice were measured every second day over the course of the study. If weight loss was not a good predictor of tolerability, the dose where no animals needed to be terminated due to toxicity was used.

The conditions of data set [7]: mouse, in vivo, iv, 20 mg/kg.
Excerpt: The pharmacokinetics (PK) of LN-encapsulated docetaxel derivatives were compared to the PK of Taxotere™, the commercial docetaxel formulation, and derivatives formulated in the same manner as Taxotere™. Taxotere™ and similarly formulated derivatives were formulated as described in the prescribing information for Taxotere™ (Sanofi-Aventis, U.S.) using ethanol/polysorbate 80/physiological saline solution to dissolve the drug. The docetaxel derivative was encapsulated in DSPC/chol, DPPC/Chol and DMPC/Chol LN (55:45 mol %) at a drug-to-lipid ratio of 0.2 wt/wt using the ammonium sulfate loading technique. The lipid components contained trace amounts (0.15 μCi/mg lipid) of the lipid marker [^3H]CHE, allowing monitoring of the elimination of both the prodrug and the LN carrier from circulation.
The PK and in vivo release studies were based on 4 time points (1, 4, 8 and 16 hrs) and 4 mice per time point. […] The methanolic solutions were centrifuged for 30 min at 15,000×g at 4° C. to pellet the proteins and the supernatant was analyzed for docetaxel and drug derivatives by UHPLC. For LN formulations, 25-50 μl of plasma was added to scintillation fluid (PicoFluor 40, Perkin Elmer) and analyzed for lipid levels ([^3H]-CHE radioactivity) by scintillation counting.
Data set [8] in a line: Chemical (hydrolytic) stability in buffered aqueous solutions. The data set is classed as physicochemical. The settings on record: 24 hour incubation in pH 7.4 buffer, 37° C.

Turning to `CC[C@]1(O)C[C@H]2CN(CCc3c([nH]c4ccccc34)[C@@](C(=O)OC)(c3cc4c(cc3OC)N(C=O)[C@H]3[C@@](O)(C(=O)OC)[C@H](OC(C)=O)[C@]5(CC)C=CCN6CC[C@]43[C@@H]65)C2)C1` [free VCR, vincristine], the “concentration profile in blood plasma over time” value in the data set on A431 tumors is “rapidly removed from circulation”.

As for `CC(=O)O[C@@]12CO[C@@H]1C[C@H](O)[C@@]1(C)C(=O)[C@H](O)C3=C(C)[C@@H](OC(=O)[C@H](OC(=O)CCCN4CCN(C)CC4)[C@@H](NC(=O)OC(C)(C)C)c4ccccc4)C[C@@](O)([C@@H](OC(=O)c4ccccc4)C12)C3(C)C` (stereo partly shown) [TD1, 2′-O-(N-methyl-piperazinylbutanoic acid ester) derivative of docetaxel], in data set [1] (24 hour incubation in pH 4 buffer, 37° C.), the “Prodrug levels (% remaining), pH 4” value is reported as 94%. In addition, the half-life (as a rule, the time needed for the level to fall by half in the phase considered) at 50 g/ml in [1] (citrate/HEPES (10 mM/10 mM) buffered aqueous solution, pH 4, read-out: hydrolysis half-life (converted)) was about 49 days. Besides, the “Prodrug levels (% remaining), Plasma” value in data set [2] is 12%. Moreover, the figures for the concentration for half-maximal inhibition (IC50) in data set [3], in data set [4] and in data set [5] were under 0.1 nM, 0.1 nM and 0.5 nM, respectively. Moreover, the maximal tolerated dose (MTD) (in general, the highest dose tested that stayed within the study's limit of toxicity) at 14 days in data set [6] (docetaxel equivalents, read-out: MTD) was found to be 16 mg/kg; in [6] (mg/kg prodrug, read-out: MTD expressed as prodrug), 20 mg/kg. In addition, the “Clin. Observations” value in data set [6] (docetaxel equivalent dose 20 mg/kg, 20 mg/kg) was “acute toxicity (lethality)”; in data set [6] (docetaxel equivalent dose 20 mg/kg, listed as Derivative, 20 mg/kg) it was “Acute toxicity”; in data set [6] (dose 24 mg/kg), “Acute toxicity”. Moreover, the “DRD (drug-related death)” value in data set [6] (dose 16 mg/kg) is listed as 0/3; in data set [6] (dose 20 mg/kg), 1/1; in data set [6] (dose 24 mg/kg), 3/3. In data set [7] (Swiss Webster), the “time by which plasma concentrations were below detectable levels” value was at most 2 h. The “plasma circulation half-lives” value in data set [7] is reported as “minutes”. For the same compound, the “Prodrug levels (% remaining), pH 7.4” value in data set [8] turned out to be 23%. Also, the pKa (in general, the negative logarithm of the acid dissociation constant) in “physchem” came to 7.7.

Consider `CC(=O)O[C@@]12CO[C@@H]1C[C@H](O)[C@@]1(C)C(=O)[C@H](O)C3=C(C)[C@@H](OC(=O)[C@H](O)[C@@H](NC(=O)OC(C)(C)C)c4ccccc4)C[C@@](O)([C@@H](OC(=O)c4ccccc4)[C@H]21)C3(C)C` [Docetaxel, reference compound], for which the concentration for half-maximal inhibition (IC50) (commonly the concentration that inhibits the measured activity by half) in data set [3] was under 0.1 nM; in data set [4] it was 0.1 nM; in data set [5], 1 nM.
